{"source": "patent US20060134630A1", "about": "“Method for screening for an antimicrobial polypeptide” (Novozymes A/S, priority 2002, published 2006)", "key": {"Fusarium longypes [1]": {"tested_on": "Fusarium longypes", "test": "Growth inhibition of Fusarium longypes by AFP (filter-agar plate treated with chloroform)", "format": "cell-based", "set-up": "key: +: whether or not a clearing zone is present in the top-layer; −: whether or not a clearing zone is present in the top-layer", "conditions": "Fusarium longypes top-layer over origami colonies, 0.1% arabinose, 3 days room temperature", "text": "E. coli origami cells were transformed with pHHA900-AFP and pHHA, respectively and cultured overnight at 37 degrees C. on LB-agar plates containing tetracycline (tet), kanamycin (kan) and ampicillin (amp) to select for viable origami cells comprising said constructs. Two viable origami colonies containing each of the constructs were selected and used to inoculate 3 other LB-agar plates with tet, kan and amp before culturing said plates for 3 days at 37 degrees C. A cellulose acetate filter (Schleider & Schull) was placed on top of each of the plates and the colonies were striped off with the filters. The filters were then place on new LB-agar plates containing 0.1% arabinose with the colonies facing up to induce expression of the AFP. The filter-agar, 0.1% arabinose plates were incubated overnight at 37 degrees C. before treating them with chloroform as described in example 1. After this a top-layer of 6 ml agar comprising approximately […] Fusarium longypes were poured on top of the chloroform treated filter-agar plate. The plates with top-layer were then incubated for 3 days at room temperature. The pink color of the Fusarium longypes mycelium facilitated the detection of the clearing zones in the top layer. […]"}, "Fusarium longypes [2]": {"tested_on": "Fusarium longypes", "test": "Growth inhibition of Fusarium longypes by AFP diffused into solid media (filter removed)", "format": "cell-based", "set-up": "key: +: whether or not a clearing zone is present in the top-layer; −: whether or not a clearing zone is present in the top-layer", "conditions": "Fusarium longypes top-layer, acetate filter removed, 0.1% arabinose, 3 days room temperature", "text": "The method used in this example is similar to the method described in example 14 with the difference that in this example the acetate filter containing the E.coli origami cells is removed from the arabinose plate before it is overlaid with the fungus Fusarium longypes which is used as an indicator strain.\nAdditionally, this example is very similar to example 4, with the exception that in the present example AFP is the antimicrobial polypeptide (instead of Plectasin in example 4) and Fusarium longypes is the indicator cells (instead of Bacillus subtilis in example 4). As described in example 14, E. coli origami cells were transformed with pHHA900-AFP and pHHA, respectively and cultured overnight at 37 degrees C on LB-agar plates containing tetracycline (tet), kanamycin (kan) and ampicillin (amp) to select for viable E.coli origami cells comprising said constructs. Two viable E.coli origami colonies containing each of the constructs were selected and used to inoculate a LB-agar plate with tet, kan and amp before culturing said plate for 3 days at 37 degrees C. A cellulose acetate filter was placed on top of the plate and the colonies were striped off with the filter. The filter was then placed on a new LB-agar plate containing 0.1% arabinose with the colonies facing up to induce expression of the AFP. The filter-agar, 0.1% arabinose plate was incubated overnight at 37 degrees C. […]"}}}
{"substance": "pHHA900-AFP: antifungal protein derived from Aspergillus giganteus, expressed in the cytoplasm (ATYNGKCYKKDNICKYKAQSGKTAICKCYVKKCPRDGAKCEFDSYKGKCYC; UniProt P17737 44-94, looked up)", "values": [{"measurement": "Clearing zone +/−, Plate treated with chloroform", "setting": "Fusarium longypes [1]", "result": "+"}, {"measurement": "Clearing zone +/−", "setting": "Fusarium longypes [2]", "result": "+"}]}
